{"source": "patent US8906925B2", "about": "“Pyrido[4,3-B]indoles containing rigid moieties” (Medivation Technologies, Inc., priority 2008, dated 2014)", "key": {"C57B1I6J mice": {"tested_on": "C57B1I6J mice", "experiment": "Catalepsy in the mouse bar test (EPS model)", "type": "in vivo", "details": "2 mg/kg i.p.", "source_text": "Antipsychotic drugs are known to induce extrapyramidal syndrome (EPS) in animals and in humans. An animal model considered to be predictive of EPS is the mouse bar test, which measures cataleptic responses to pharmacological agents.\nMale C57B1I6J mice from Jackson Laboratories (Bar Harbor, Me.) were used. Mice were received at 6-weeks of age. Upon receipt, mice were assigned unique identification numbers (tail marked) and were group housed with 4 mice/cage in OptiMICE ventilated cages. All animals remained housed in groups of four during the remainder of the study. All mice were acclimated to the colony room for at least two weeks prior to testing and were subsequently tested at an average age of 8 weeks. During the period of acclimation, mice were examined on a regular basis, handled, and weighed to assure adequate health and suitability. Animals were maintained on a 12 h/12 h light/dark cycle. The room temperature was maintained between 20 and 23° C. with a relative humidity maintained between 30% and 70%. Chow and water were provided ad libitum for the duration of the study. In each test, animals were randomly assigned across treatment groups.\nThe following compounds were used for this study. 1) Compound No. 83, 88 or 90 (0.03, 0.1, 0.3, 1, 3, 10, 30) was dissolved in 3% Tween in PBS and administered orally at a dose volume of 10 mL/kg; 2) Haloperidol (2 mg/kg) was dissolved in 10% DMSO and administered i.p. at a dose volume of 10 mL/kg.\nThe front paws of a mouse were placed on a horizontal metal bar raised 2″ above a Plexiglas platform and time was recorded for up to 30 seconds per trial. The test ended when the animal's front paws returned to the platform or after 30 seconds. The test was repeated three times and the average of the three trials was reported as the intensity index of catalepsy. Antipsychotic agents such as haloperidol cause rigidity as a side effect. Animals treated with haloperidol will hold on to the bar without moving for several minutes. Mice were brought to the activity experimental room for at least 1 h acclimation to the experimental room conditions prior to testing. Following injection of either vehicle, Compound No. 83, 88 or 90, or haloperidol, catalepsy was assessed at 3 time points: 30 min, 1 h, and 3 h. At the end of each trial, the apparatus was thoroughly cleaned with 70% ethanol.\nData were analyzed by analysis of variance (ANOVA) followed by post-hoc comparisons with Fisher Tests when appropriate. An effect was considered significant if p<0.05."}, "male Wistar rat": {"tested_on": "male Wistar rat", "experiment": "Conditioned avoidance response (CAR) model", "type": "in vivo", "details": "0.3 mg/kg, s.c.", "protocol": "All currently approved antipsychotic agents (typical and atypical) are known to have the ability to selectively suppress conditioned avoidance response (CAR) behavior in the rat. This evidence makes CAR one of the primary tests to assess antipsychotic activity of novel compounds.\nThe effects of Compound Nos. 83, 88 and 90, at concentrations including 0.1, 0.3, 1, 3, 10 and 20 mg/kg, p.o., in the conditioned avoidance response model were assessed in the male Wistar rat. Risperidone (0.3 mg/kg, s.c.) was used in the present study as a positive reference compound.\nFor each testing session, animals were first placed for a 4-min. habituation period in a shuttlebox with an electrified grid floor. Then, rats were submitted to 30 trials spaced by intertribal intervals varying at random between 20 and 30 sec. Each trial consisted of a 10-sec. light stimulus (conditioned stimulus, CS) followed by a 10-sec. electric foot shock (unconditioned stimulus, US) in presence of the light presented in the compartment where the rat is located. If the animal moved to the other compartment during the initial 10-sec. of the trial, the light was terminated (no shock was delivered) and the response was recorded as an avoidance response. If the rat changed compartment during the foot shock, the light and the shock were terminated and the response was recorded as an unconditioned response. […] If a response was made during an intertrial interval, the response was recorded as an intertrial crossing. Training was performed 5 days per week with one session of 30 trials per day, until rats reached the performance criterion of 80% of avoidance response on at least two consecutive daily sessions. […] A minimal wash-out period of 48 hours was allowed between 2 treatments. During the wash-out period, animals were trained until they recovered an avoidance performance of at least 80%.\nStatistical analysis was performed using a Friedman two-way ANOVA by ranks followed by the Wilcoxon matched-pairs signed-ranks test to test each dose of the test compound administered versus vehicle control treated rats."}, "[1]": {"target": "human dopamine D2L receptor (Homo sapiens, UniProt P14416)", "sequence (P14416 whole entry)": "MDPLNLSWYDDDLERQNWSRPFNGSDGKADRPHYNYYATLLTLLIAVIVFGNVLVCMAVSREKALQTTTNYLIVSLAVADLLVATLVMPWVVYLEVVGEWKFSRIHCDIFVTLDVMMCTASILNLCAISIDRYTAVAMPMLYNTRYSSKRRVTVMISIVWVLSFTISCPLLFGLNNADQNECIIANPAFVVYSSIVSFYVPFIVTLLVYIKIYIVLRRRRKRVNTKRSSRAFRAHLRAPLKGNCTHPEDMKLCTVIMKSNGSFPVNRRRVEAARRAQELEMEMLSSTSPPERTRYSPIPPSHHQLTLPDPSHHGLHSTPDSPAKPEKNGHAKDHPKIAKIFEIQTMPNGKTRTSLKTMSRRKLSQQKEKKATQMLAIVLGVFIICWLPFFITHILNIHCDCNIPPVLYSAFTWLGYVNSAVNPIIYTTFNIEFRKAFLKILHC", "experiment": "Dopamine D2L radioligand binding ([3H]Spiperone)", "details": "percent inhibition of specific binding; compound at 1 μM; read-out: Inhibition of ligand binding, Dopamine D2L", "source_text": "Non-specific binding was estimated in the presence of […] Haloperidol. Receptor proteins were filtered and washed, the filters were then counted to determine [^3H]Spiperone specifically bound. […] Biochemical assay results are presented as the percent inhibition of specific binding in Table 9."}, "[2]": {"target": "T1, human recombinant serotonin 5-HT1B receptor (Homo sapiens, UniProt P28222)", "T1 construct": "expressed in transfected cells; host or cells: CHO-K1 cell line, membrane extracts", "T1 sequence (P28222 whole entry)": "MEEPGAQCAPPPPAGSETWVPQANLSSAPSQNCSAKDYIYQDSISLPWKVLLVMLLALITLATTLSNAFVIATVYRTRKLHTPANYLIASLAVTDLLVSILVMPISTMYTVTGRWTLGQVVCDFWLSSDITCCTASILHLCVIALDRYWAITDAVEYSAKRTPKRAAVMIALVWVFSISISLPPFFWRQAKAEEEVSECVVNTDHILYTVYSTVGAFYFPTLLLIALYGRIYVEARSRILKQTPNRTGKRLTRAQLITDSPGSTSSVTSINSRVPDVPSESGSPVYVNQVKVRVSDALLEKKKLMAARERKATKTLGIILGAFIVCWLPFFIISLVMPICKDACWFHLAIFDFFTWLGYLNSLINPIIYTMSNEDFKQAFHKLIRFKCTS", "experiment": "5-HT1B radioligand binding competition assay ([3H]5-CT, CHO-K1 membranes)", "details": "5 μM, in duplicate, average", "protocol": "To determine the binding activity at the human recombinant serotonin 5-HT1B receptor of compounds of the invention, CHO-K1 cell line expressing the human 5-HT1B recombinant receptor was amplified to prepare membranes used for the radioligand binding assay throughout the study. Radioligand binding competition on 5-HT1B was performed by adding successively in the wells of a 96 well plate (Master Block, Greiner, 786201). […] The plate was incubated 60 min at 25° C. in a water bath and then filtered over GF/B filters (Perkin Elmer, 6005177, presoaked in 0.5% PE1 for 2 h at room temperature) with a Filtration unit (Perkin Elmer). The filters were washed 3× with 0.5 mL of ice-cold washing buffer (50 mM Tris pH 7.4). 50 μL Microscint 20 (Packard) was added and the plate was incubated 15 min on an orbital shaker and then counted with a TopCount™ for 1 min/well.\nThe reference value thus obtained for the test was compared to a historical value obtained from the same receptor and used to validate the experimental session. […] For replicate determinations, the maximum variability tolerated in the test was of +/−20% around the average of the replicates.\nCompounds were tested for binding activity in the radioligand binding competition assay on human 5-HT1B receptor, at one concentration […], in duplicate. Dose-response data from test compounds were analyzed with XLfit (IDBS) software using nonlinear regression applied to a sigmoidal dose-response model.\nDose-response data was analyzed with XLfit (IDBS) software using non-linear regression applied to a sigmoidal dose-response model."}, "[3]": {"target": "T2, human recombinant serotonin (5-Hydroxytryptamine) 5-HT2C receptor (Homo sapiens, UniProt P28335)", "T2 construct": "expressed in transfected cells; host or cells: Chinese hamster ovary (CHO-K1) cells", "T2 sequence (P28335 33-458)": "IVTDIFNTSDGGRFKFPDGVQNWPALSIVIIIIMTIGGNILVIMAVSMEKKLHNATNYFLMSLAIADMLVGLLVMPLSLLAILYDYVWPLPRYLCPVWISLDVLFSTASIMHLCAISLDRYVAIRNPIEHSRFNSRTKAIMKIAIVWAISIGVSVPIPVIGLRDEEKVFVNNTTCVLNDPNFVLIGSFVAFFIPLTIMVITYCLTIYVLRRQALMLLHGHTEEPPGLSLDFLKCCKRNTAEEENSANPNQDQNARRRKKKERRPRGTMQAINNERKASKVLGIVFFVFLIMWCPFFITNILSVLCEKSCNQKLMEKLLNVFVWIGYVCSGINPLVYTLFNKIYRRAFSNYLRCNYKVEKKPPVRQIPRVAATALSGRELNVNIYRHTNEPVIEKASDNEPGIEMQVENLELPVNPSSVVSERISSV", "experiment": "Serotonin 5-HT2C radioligand binding ([3H]Mesulergine)", "details": "compound at 1 μM; read-out: Inhibition of ligand binding, Serotonin 5-HT2C (percent inhibition of specific binding)", "summary_of_the_method": "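Compounds tested at 1 μM or lower (1% DMSO vehicle) for displacement of 1 nM [3H]Mesulergine over 60 min at 25° C. Specific binding determined by filtration counting, with 1 μM Mianserin defining non-specific binding; values are percent inhibition.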"}, "[4]": {"target": "T3, human recombinant serotonin (5-Hydroxytryptamine) 5-HT6 receptor (Homo sapiens, UniProt P50406)", "T3 construct": "expressed in transfected cells; host or cells: human HeLa cells", "T3 sequence (P50406 whole entry)": "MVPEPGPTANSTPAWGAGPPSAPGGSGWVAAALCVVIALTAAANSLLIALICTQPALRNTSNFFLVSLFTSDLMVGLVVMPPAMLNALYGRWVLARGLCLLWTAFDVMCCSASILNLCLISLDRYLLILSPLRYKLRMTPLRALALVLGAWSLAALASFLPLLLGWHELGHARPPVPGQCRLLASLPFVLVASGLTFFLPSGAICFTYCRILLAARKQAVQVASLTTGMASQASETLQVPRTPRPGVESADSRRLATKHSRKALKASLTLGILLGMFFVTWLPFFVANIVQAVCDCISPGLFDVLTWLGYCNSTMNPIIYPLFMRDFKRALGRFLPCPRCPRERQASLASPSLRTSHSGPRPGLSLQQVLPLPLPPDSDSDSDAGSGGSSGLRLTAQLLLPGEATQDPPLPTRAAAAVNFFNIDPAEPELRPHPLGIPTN", "experiment": "Serotonin 5-HT6 radioligand binding ([3H]LSD)", "details": "compound at 1 μM; read-out: Inhibition of ligand binding, Serotonin 5-HT6 (percent inhibition of specific binding)", "protocol": "Compounds of the invention were incubated with 1.5 nM [3H]Lysergic acid diethylamide (LSD) for 120 min. at 37° C. […] Receptor proteins were filtered and washed, the filters were then counted to determine [3H]LSD specifically bound. Compounds were screened at 1 μM or lower, using 1% DMSO as vehicle. Biochemical assay results are presented as the percent inhibition of specific binding in Table 10."}, "[5]": {"target": "human recombinant serotonin (5-Hydroxytryptamine) 5-HT7 receptor (Homo sapiens, UniProt P34969)", "sequence (P34969 whole entry)": "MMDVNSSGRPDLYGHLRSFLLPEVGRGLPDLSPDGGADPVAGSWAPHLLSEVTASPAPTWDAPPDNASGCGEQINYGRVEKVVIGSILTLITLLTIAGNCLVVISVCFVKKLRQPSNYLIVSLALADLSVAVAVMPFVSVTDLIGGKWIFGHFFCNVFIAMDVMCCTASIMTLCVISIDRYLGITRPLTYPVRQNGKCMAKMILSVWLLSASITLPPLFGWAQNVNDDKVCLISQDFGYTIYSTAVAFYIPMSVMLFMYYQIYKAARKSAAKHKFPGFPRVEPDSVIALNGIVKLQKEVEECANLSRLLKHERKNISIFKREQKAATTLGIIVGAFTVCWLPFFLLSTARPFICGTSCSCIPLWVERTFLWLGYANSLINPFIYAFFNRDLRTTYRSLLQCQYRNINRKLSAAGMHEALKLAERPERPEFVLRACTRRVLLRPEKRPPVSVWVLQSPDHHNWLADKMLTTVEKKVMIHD", "experiment": "Serotonin 5-HT7 radioligand binding ([3H]LSD)", "details": "compound at 1 μM; read-out: Inhibition of ligand binding, Serotonin 5-HT7 (percent inhibition of specific binding)", "source_text": "Receptor proteins were filtered and washed, the filters were then counted to determine [^3H]LSD specifically bound."}, "[6]": {"target": "T4, human recombinant serotonin (5-Hydroxytryptamine) 5-HT2A receptor (Homo sapiens, UniProt P28223)", "T4 construct": "expressed in transfected cells; host or cells: Chinese hamster ovary (CHO-K1) cells", "T4 sequence (P28223 whole entry)": "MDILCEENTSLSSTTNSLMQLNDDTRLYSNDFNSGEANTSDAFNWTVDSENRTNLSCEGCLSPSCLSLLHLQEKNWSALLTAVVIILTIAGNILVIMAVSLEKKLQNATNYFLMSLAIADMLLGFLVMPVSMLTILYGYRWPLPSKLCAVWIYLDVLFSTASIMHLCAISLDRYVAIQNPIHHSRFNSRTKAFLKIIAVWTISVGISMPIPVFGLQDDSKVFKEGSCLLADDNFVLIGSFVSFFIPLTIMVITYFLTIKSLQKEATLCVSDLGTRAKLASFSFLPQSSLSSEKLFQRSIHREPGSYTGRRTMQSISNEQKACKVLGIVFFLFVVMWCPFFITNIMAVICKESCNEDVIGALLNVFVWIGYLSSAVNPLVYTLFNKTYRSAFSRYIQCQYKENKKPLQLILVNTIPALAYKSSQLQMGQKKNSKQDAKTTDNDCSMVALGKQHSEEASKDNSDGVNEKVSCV", "experiment": "Serotonin 5-HT2A radioligand binding ([3H]Ketanserin)", "details": "read-out: Inhibition of ligand binding, Serotonin 5-HT2A (percent inhibition of specific binding), compound at 1 μM", "protocol": "Compounds of the invention were incubated with 0.5 nM [^3H]Ketanserin for 60 min. at 25° C. Non-specific binding was estimated in the presence of 1 μM Mianserin. Receptor proteins were filtered and washed, the filters were then counted to determine [^3H]Ketanserin specifically bound."}, "histamine receptor H1": {"target": "histamine receptor H1 (Homo sapiens, UniProt P35367)", "sequence (P35367 whole entry)": "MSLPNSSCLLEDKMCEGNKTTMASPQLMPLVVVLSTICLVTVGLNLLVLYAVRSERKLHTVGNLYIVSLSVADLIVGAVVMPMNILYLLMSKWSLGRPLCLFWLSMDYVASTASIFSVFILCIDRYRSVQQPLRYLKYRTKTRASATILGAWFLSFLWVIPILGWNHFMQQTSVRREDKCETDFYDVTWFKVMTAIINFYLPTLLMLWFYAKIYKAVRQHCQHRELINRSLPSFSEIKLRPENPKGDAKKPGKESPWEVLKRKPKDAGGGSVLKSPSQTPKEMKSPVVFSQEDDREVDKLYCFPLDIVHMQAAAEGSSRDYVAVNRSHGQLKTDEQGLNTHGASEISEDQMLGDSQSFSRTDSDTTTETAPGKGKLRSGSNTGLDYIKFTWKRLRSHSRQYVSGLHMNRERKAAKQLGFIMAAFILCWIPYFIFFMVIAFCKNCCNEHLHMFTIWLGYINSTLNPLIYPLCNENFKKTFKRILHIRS", "experiment": "Histamine H1 radioligand binding ([3H]Pyrilamine)", "details": "read-out: Histamine Binding (1 μM) H1, percent inhibition of specific binding, 1 μM", "summary_of_the_method": "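Values are percent inhibition of specific [3H]pyrilamine (1.2 nM) binding with compounds at ≤1 μM (1% DMSO vehicle); 180 min incubation at 25 °C, pH 7.4 Tris buffer, on CHO-expressed human H1 receptor; 1 μM pyrilamine defined nonspecific binding, bound ligand counted after filtration.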"}, "[7]": {"target": "T5, human recombinant histamine H2 receptor (Homo sapiens, UniProt P25021)", "T5 construct": "expressed in transfected cells; host or cells: Chinese hamster ovary (CHO) K1 cells", "T5 sequence (P25021 whole entry)": "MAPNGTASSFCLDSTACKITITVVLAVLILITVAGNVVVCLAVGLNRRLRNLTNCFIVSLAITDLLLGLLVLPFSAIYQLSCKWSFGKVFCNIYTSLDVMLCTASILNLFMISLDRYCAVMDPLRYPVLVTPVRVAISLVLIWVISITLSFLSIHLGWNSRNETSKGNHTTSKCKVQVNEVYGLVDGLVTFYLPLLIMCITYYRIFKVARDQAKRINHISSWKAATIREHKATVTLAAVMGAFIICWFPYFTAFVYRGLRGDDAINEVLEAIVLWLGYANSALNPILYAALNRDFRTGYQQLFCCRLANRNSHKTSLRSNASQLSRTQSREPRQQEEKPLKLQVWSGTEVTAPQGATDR", "experiment": "Histamine H2 radioligand binding ([125I]Aminopotentidine)", "details": "read-out: Histamine Binding (1 μM) H2, percent inhibition of specific binding, 1 μM", "summary_of_the_method": "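Receptor source: human recombinant H2 in CHO-K1 cells, assayed in 50 mM phosphate pH 7.4. Competition against 0.1 nM [125I]aminopotentidine, 120 min, 25 °C; 3 μM tiotidine sets nonspecific binding, filter-bound counts give specific binding.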"}}}
{"smiles": "O=C(CCCN1CCC(O)(c2ccc(Cl)cc2)CC1)c1ccc(F)cc1", "note": "[Haloperidol, haloperidol, reference compound]", "values": [{"measurement": "catalepsy (bar test)", "setting": "C57B1I6J mice", "value": "increased catalepsy"}]}
{"smiles": "Cc1nc2n(c(=O)c1CCN1CCC(c3noc4cc(F)ccc34)CC1)CCCC2", "note": "[risperidone, reference compound]", "values": [{"measurement": "number of avoidance responses, change versus pretreatment", "setting": "male Wistar rat", "value": "−61", "unit": "%"}, {"measurement": "number of intertrial crossings, change versus pretreatment", "setting": "male Wistar rat", "value": "−69", "unit": "%"}, {"measurement": "number of escape failures", "setting": "male Wistar rat; increased in 7/12 animals, 0±0 before treatment", "value": "4±1", "unit": "escape failures"}]}
{"smiles": "CN1CCc2c(c3cccc(Cl)c3n2CC(C)(O)c2ccncc2)C1", "note": "(stereo not drawn) [Compound 182, 1-(6-chloro-2-methyl-3,4-dihydro-1H-pyrido[4,3-b]indol-5(2H)-yl)-2-(pyridin-4-yl)propan-2-ol]", "values": [{"measurement": "inhibition at 1 µM", "setting": "[1]", "value": 8, "unit": "%"}, {"measurement": "5-HT1B (5 μM) % Binding relative to bound radioligand", "setting": "[2]", "value": 3, "unit": "%"}, {"measurement": "inhibition at 1 µM", "setting": "[3]", "value": 93, "unit": "%"}, {"measurement": "inhibition at 1 µM", "setting": "[4]", "value": 47, "unit": "%"}, {"measurement": "inhibition at 1 µM", "setting": "[5]", "value": 54, "unit": "%"}, {"measurement": "inhibition at 1 µM", "setting": "[6]", "value": 91, "unit": "%"}, {"measurement": "inhibition at 1 µM", "setting": "histamine receptor H1", "value": 26, "unit": "%"}, {"measurement": "inhibition at 1 µM", "setting": "[7]", "value": 53, "unit": "%"}]}
